Test results published in ChEMBL document CHEMBL1221321, “Synthesis and properties of macrolones characterized by two ether bonds in the linker” (Bioorg Med Chem, 2010).
In brackets after ≈: the same amount, converted by molar mass.

What was measured:
[1] = test system: HepG2; test: Cytotoxicity against human HepG2 cells after 24 hrs by MTS assay; type: cell-based; settings: HepG2, 24 h
[2] = test system: Streptococcus pyogenes; test: Antibacterial activity against efflux-mediated macrolide-resistance Streptococcus pyogenes 2 by broth microdilution method; type: functional
[3] = test system: Streptococcus pneumoniae; test: Antibacterial activity against efflux-mediated macrolide-resistance Streptococcus pneumoniae Ci137 by broth microdilution method; type: functional
[4] = test system: Streptococcus pneumoniae; test: Antibacterial activity against constitutive MLS resistance Streptococcus pneumoniae 58 by broth microdilution method; type: functional
[5] = test system: Streptococcus pyogenes; test: Antibacterial activity against constitutive MLS resistance Streptococcus pyogenes 166 GR-Micro by broth microdilution method; type: functional
[6] = test system: Streptococcus pneumoniae; test: Antibacterial activity against inducible resistance to macrolide and constitutive resistance to lincosamide Streptococcus pneumoniae 134 GR M by broth microdilution method; type: functional
[7] = test system: Streptococcus pyogenes; test: Antibacterial activity against inducible resistance to macrolide, licosamide and streptogramin Streptococcus pyogenes 11 by broth microdilution method; type: functional
[8] = test system: Staphylococcus aureus; test: Antibacterial activity against efflux-mediated macrolide-resistance Staphylococcus aureus PK1 by broth microdilution method; type: functional
[9] = test system: Staphylococcus aureus; test: Antibacterial activity against inducible resistance to macrolide, licosamide, and streptogramin Staphylococcus aureus 90265/97 by broth microdilution method; type: functional
[10] = test system: Haemophilus influenzae; test: Antibacterial activity against Haemophilus influenzae ATCC 49247 by broth microdilution method; type: functional
[11] = test system: THP-1; test: Cytotoxicity against human THP1 cells after 24 hrs by MTS assay; type: cell-based; settings: THP-1, 24 h

Row | Structure (SMILES) | IC50 [1] [µM] | MIC [2] [µg/mL] | MIC ([3]; read-out: MIC) [µg/mL] | MIC [4] [µg/mL] | MIC [5] [µg/mL] | MIC [6] [µg/mL] | MIC ([7]; read-out: MIC) [µg/mL] | MIC [8] [µg/mL] | MIC [9] [µg/mL] | MIC [10] [µg/mL] | IC50 [11] [µM] | MIC [3] [µg/mL] | MIC [7] [µg/mL]
1 | CC[C@H]1OC(=O)[C@H](C)[C@@H](O[C@H]2C[C@@](C)(OC)[C@@H](OCCCOCCCc3cc4c5c(c3)c(=O)c(C(=O)O)cn5C(C)(C)OC4)[C@H](C)O2)[C@H](C)[C@@H](O[C@@H]2O[C@H](C)C[C@H](N(C)C)[C@H]2O)[C@](C)(O)C[C@@H](C)CN(C)[C@H](C)[C@@H](O)[C@]1(C)O | > 50 | ≤ 0.125 | ≤ 0.125 | ≤ 0.125 | ≤ 0.125 | ≤ 0.125 | ≤ 0.125 | ≤ 0.125 | ≤ 0.125 | 1 (≈ 0.904 µM) | 40 | – | –
2 | CC[C@H]1OC(=O)[C@H](C)[C@@H](O[C@H]2C[C@@](C)(OC)[C@@H](OCCCOCCCCCc3ccc4c(c3)c(=O)c(C(=O)O)cn4CC)[C@H](C)O2)[C@H](C)[C@@H](O[C@@H]2O[C@H](C)C[C@H](N(C)C)[C@H]2O)[C@](C)(O)C[C@@H](C)CN(C)[C@H](C)[C@@H](O)[C@]1(C)O | 20 | ≤ 0.125 | ≤ 0.125 | ≤ 0.125 | 0.25 (≈ 0.229 µM) | 0.5 (≈ 0.458 µM) | ≤ 0.125 | ≤ 0.125 | ≤ 0.125 | 2 (≈ 1.83 µM) | 9 | – | –
3 | CC[C@H]1OC(=O)[C@H](C)[C@@H](O[C@H]2C[C@@](C)(OC)[C@@H](OCCCOCCCc3ccc4c(c3)c(=O)c(C(=O)O)cn4C3CC3)[C@H](C)O2)[C@H](C)[C@@H](O[C@@H]2O[C@H](C)C[C@H](N(C)C)[C@H]2O)[C@](C)(O)C[C@@H](C)CN(C)[C@H](C)[C@@H](O)[C@]1(C)O | > 50 | ≤ 0.125 | ≤ 0.125 | ≤ 0.125 | ≤ 0.125 | ≤ 0.125 | ≤ 0.125 | ≤ 0.125 | ≤ 0.125 | 2 (≈ 1.86 µM) | 48 | – | –
4 | CC[C@H]1OC(=O)[C@H](C)[C@@H](O[C@H]2C[C@@](C)(OC)[C@@H](OCCCOCCCc3ccc4c(c3)c(=O)c(C(=O)O)cn4C(C)C)[C@H](C)O2)[C@H](C)[C@@H](O[C@@H]2O[C@H](C)C[C@H](N(C)C)[C@H]2O)[C@](C)(O)C[C@@H](C)CN(C)[C@H](C)[C@@H](O)[C@]1(C)O | > 50 | ≤ 0.125 | ≤ 0.125 | ≤ 0.125 | ≤ 0.125 | < 0.125 | ≤ 0.125 | ≤ 0.125 | ≤ 0.125 | 4 (≈ 3.71 µM) | 46 | – | –
5 | CC[C@H]1OC(=O)[C@H](C)[C@@H](O[C@H]2C[C@@](C)(OC)[C@@H](OCCCOCCCc3ccc4c(c3)c(=O)c(C(=O)O)cn4CC)[C@H](C)O2)[C@H](C)[C@@H](O[C@@H]2O[C@H](C)C[C@H](N(C)C)[C@H]2O)[C@](C)(O)C[C@@H](C)CN(C)[C@H](C)[C@@H](O)[C@]1(C)O | > 50 | ≤ 0.125 | ≤ 0.125 | ≤ 0.125 | ≤ 0.125 | ≤ 0.125 | ≤ 0.125 | ≤ 0.125 | ≤ 0.125 | 1 (≈ 0.94 µM) | > 50 | – | –
6 | CC[C@H]1OC(=O)[C@H](C)[C@@H](O[C@H]2C[C@@](C)(OC)[C@@H](OCCCOCCCCc3ccc4c(c3)c(=O)c(C(=O)O)cn4N(C)C)[C@H](C)O2)[C@H](C)[C@@H](O[C@@H]2O[C@H](C)C[C@H](N(C)C)[C@H]2O)[C@](C)(O)C[C@@H](C)CN(C)[C@H](C)[C@@H](O)[C@]1(C)O | 42 | ≤ 0.125 | ≤ 0.125 | 0.25 (≈ 0.229 µM) | 0.5 (≈ 0.457 µM) | 0.5 (≈ 0.457 µM) | ≤ 0.125 | ≤ 0.125 | ≤ 0.125 | 4 (≈ 3.66 µM) | 20 | – | –
7 | CC[C@H]1OC(=O)[C@H](C)[C@@H](O[C@H]2C[C@@](C)(OC)[C@@H](OCCCOCCCc3ccc4c(c3)c(=O)c(C(=O)O)cn4N(C)C)[C@H](C)O2)[C@H](C)[C@@H](O[C@@H]2O[C@H](C)C[C@H](N(C)C)[C@H]2O)[C@](C)(O)C[C@@H](C)CN(C)[C@H](C)[C@@H](O)[C@]1(C)O | > 50 | ≤ 0.125 | ≤ 0.125 | ≤ 0.125 | ≤ 0.125 | 0.25 (≈ 0.232 µM) | ≤ 0.125 | ≤ 0.125 | ≤ 0.125 | 2 (≈ 1.85 µM) | 48 | – | –
8 | CC[C@H]1OC(=O)[C@H](C)[C@@H](O[C@H]2C[C@@](C)(OC)[C@@H](OCCCOCCCCc3ccc4c(c3)c(=O)c(C(=O)O)cn4C3CC3)[C@H](C)O2)[C@H](C)[C@@H](O[C@@H]2O[C@H](C)C[C@H](N(C)C)[C@H]2O)[C@](C)(O)C[C@@H](C)CN(C)[C@H](C)[C@@H](O)[C@]1(C)O | 47 | ≤ 0.125 | ≤ 0.125 | ≤ 0.125 | ≤ 0.125 | ≤ 0.125 | ≤ 0.125 | ≤ 0.125 | ≤ 0.125 | 0.5 (≈ 0.459 µM) | 20 | – | –
9 | CC[C@H]1OC(=O)[C@H](C)C(=O)[C@H](C)[C@@H](O[C@@H]2O[C@H](C)C[C@H](N(C)C)[C@H]2O)[C@](C)(OC)C[C@@H](C)C(=O)[C@H](C)[C@H]2N(CCCCn3cnc(-c4cccnc4)c3)C(=O)O[C@]12C [TELITHROMYCIN] | – | 0.5 (≈ 0.616 µM) | 0.5 (≈ 0.616 µM) | 0.25 (≈ 0.308 µM) | 16 (≈ 19.7 µM) | 0.25 (≈ 0.308 µM) | ≤ 0.125 | 0.125 (≈ 0.154 µM) | ≤ 0.125 | 1 (≈ 1.23 µM) | – | – | –
10 | CC[C@H]1OC(=O)[C@H](C)[C@@H](O[C@H]2CC(C)(OC)[C@@H](OCCCOCCCc3ccc4c(c3)c(=O)c(C(=O)O)cn4C(C)(C)C)[C@H](C)O2)[C@H](C)[C@@H](O[C@@H]2O[C@H](C)C[C@H](N(C)C)[C@H]2O)[C@](C)(O)C[C@@H](C)CN(C)[C@H](C)[C@@H](O)[C@]1(C)O (stereo partly drawn) | > 50 | ≤ 0.125 | ≤ 0.125 | ≤ 0.125 | ≤ 0.125 | ≤ 0.125 | ≤ 0.125 | ≤ 0.125 | ≤ 0.125 | 2 (≈ 1.83 µM) | 40 | – | –
11 | CC[C@H]1OC(=O)[C@H](C)[C@@H](O[C@H]2C[C@@](C)(OC)[C@@H](OCCCOCCCCc3ccc4c(c3)c(=O)c(C(=O)O)cn4CC)[C@H](C)O2)[C@H](C)[C@@H](O[C@@H]2O[C@H](C)C[C@H](N(C)C)[C@H]2O)[C@](C)(O)C[C@@H](C)CN(C)[C@H](C)[C@@H](O)[C@]1(C)O | 46 | ≤ 0.125 | ≤ 0.125 | ≤ 0.125 | ≤ 0.125 | ≤ 0.125 | ≤ 0.125 | ≤ 0.125 | ≤ 0.125 | 0.5 (≈ 0.464 µM) | 22 | – | –
12 | CC[C@H]1OC(=O)[C@H](C)[C@@H](O[C@H]2C[C@@](C)(OC)[C@@H](OCCCOCCCc3cc4c5c(c3)c(=O)c(C(=O)O)cn5C(C)(C)CO4)[C@H](C)O2)[C@H](C)[C@@H](O[C@@H]2O[C@H](C)C[C@H](N(C)C)[C@H]2O)[C@](C)(O)C[C@@H](C)CN(C)[C@H](C)[C@@H](O)[C@]1(C)O | > 50 | – | – | ≤ 0.125 | 1 (≈ 0.904 µM) | ≤ 0.125 | – | 0.13 (≈ 0.117 µM) | 0.06 (≈ 0.0542 µM) | 2 (≈ 1.81 µM) | 40 | < 0.02 | < 0.02
13 | CC[C@H]1OC(=O)[C@H](C)[C@@H](O[C@H]2C[C@@](C)(OC)[C@@H](O)[C@H](C)O2)[C@H](C)[C@@H](O[C@@H]2O[C@H](C)C[C@H](N(C)C)[C@H]2O)[C@](C)(O)C[C@@H](C)CN(C)[C@H](C)[C@@H](O)[C@]1(C)O [AZITHROMYCIN] | – | 8 (≈ 10.7 µM) | 8 (≈ 10.7 µM) | > 64 | > 64 | > 64 | 16 (≈ 21.4 µM) | > 64 | > 64 | 1 (≈ 1.34 µM) | – | – | –
